Laboratory results as given in publication PMC5402301, “Discovery of tauroursodeoxycholic acid biotransformation enzymes from the gut microbiome of black bears using metagenomics” (Scientific Reports, 2017).

Columns and labels:
Assay in all cases: NADP+ reduction at […] nm, Michaelis-Menten fit
Type in all cases: biochemical
Conditions in all cases: NADP+ (0.5 mM in standard assay), 50 mM Tris-HCl pH 8.0, 25 °C
Y1-b-1 = tested on: T1, Y1-b-1
T1 construct: full-length, GST fusion (pGEX-6P-1) expressed in E. coli BL21, GST tag cut off with PreScission protease; raw reads SRA SRP079591

S1-a-2 = tested on: T2, S1-a-2
T2 construct: full-length, GST fusion (pGEX-6P-1) expressed in E. coli BL21, GST tag cut off with PreScission protease; raw reads SRA SRP079591

S1-a-1 = tested on: T3, S1-a-1
T3 construct: full-length, GST fusion (pGEX-6P-1) expressed in E. coli BL21, GST tag cut off with PreScission protease; raw reads SRA SRP079591

H1-a-1 = tested on: T4, H1-a-1
T4 construct: full-length, GST fusion (pGEX-6P-1) expressed in E. coli BL21, GST tag cut off with PreScission protease; raw reads SRA SRP079591

Y1-a-1 = tested on: T5, Y1-a-1
T5 construct: full-length, GST fusion (pGEX-6P-1) expressed in E. coli BL21, GST tag cut off with PreScission protease; raw reads SRA SRP079591

H1-a-2 = tested on: T6, H1-a-2
T6 construct: full-length, GST fusion (pGEX-6P-1) expressed in E. coli BL21, GST tag cut off with PreScission protease; raw reads SRA SRP079591

Row | Km (Y1-b-1) [µM] | Km (S1-a-2) [µM] | Km (S1-a-1) [µM] | Km (H1-a-1) [µM] | Km (Y1-a-1) [µM] | Km (H1-a-2) [µM] | Structure (SMILES)
1 | 6150 |  |  |  |  |  | C[C@H](CCC(=O)NCCS(=O)(=O)O)[C@H]1CC[C@H]2[C@@H]3[C@@H](O)C[C@@H]4C[C@H](O)CC[C@]4(C)[C@H]3CC[C@]12C [TUDCA]
2 |  | 263 | 132 | 390 | 556 | 695 | C[C@H](CCC(=O)NCCS(=O)(=O)O)[C@H]1CC[C@H]2[C@@H]3[C@H](O)C[C@@H]4C[C@H](O)CC[C@]4(C)[C@H]3CC[C@]12C [TCDCA]
